Data taken from patent US3963756A, “Derivatives of 6-methyl-2H-pyran-2,4(3H)-dione” (Zaidan Hojin Biseibutsu Kagaku Kenkyu Kai, priority 1972, dated 1976).

Assays:
[1] = test system: bacteria and fungi; conditions: Chemical Abstracts 50, 980e; cited from earlier work
[2] = molecular target: T1, Tyrosine Hydroxylase (Bos taurus, UniProt P17289); assay: Inhibition of tyrosine hydroxylase (TH); format: biochemical
T1 sequence (P17289 1-491): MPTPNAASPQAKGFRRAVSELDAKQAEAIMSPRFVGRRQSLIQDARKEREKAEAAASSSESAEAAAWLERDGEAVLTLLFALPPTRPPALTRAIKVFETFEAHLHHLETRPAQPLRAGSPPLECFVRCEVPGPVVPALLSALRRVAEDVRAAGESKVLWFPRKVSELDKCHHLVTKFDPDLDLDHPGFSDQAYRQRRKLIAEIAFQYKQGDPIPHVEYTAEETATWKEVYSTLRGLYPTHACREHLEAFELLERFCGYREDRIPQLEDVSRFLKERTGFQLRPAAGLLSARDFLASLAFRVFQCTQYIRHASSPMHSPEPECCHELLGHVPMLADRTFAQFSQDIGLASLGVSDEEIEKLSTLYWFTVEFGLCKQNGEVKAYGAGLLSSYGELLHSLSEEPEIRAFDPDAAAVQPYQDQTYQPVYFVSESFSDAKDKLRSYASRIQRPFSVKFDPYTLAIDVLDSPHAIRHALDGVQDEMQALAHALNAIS
Text: (§1) The new compounds of the present invention have been examined for their biological activities, and their inhibition to tyrosine hydroxylase and dopamine β-hydroxylase are summarized below in Table 2. The details of the test methods used and the close relationship and reliable correlation of biological activities between in vitro and in vivo test results are well documented in the literature, e.g. J. Antibiot. 23: 514 (1970); Biochem. Pharmacol., 19: 35 (1970); and J. Am. Chem. Soc. 93: 1285 (1971). […] The effects of this compound on tyrosine hydroxylase and dopamine β-hydroxylase were also tested by the methods described in the Journal of Antibiotics 23:514 (1970) and Biochem. Pharmacol. 19:35 (1970), respectively.
(§2) The chemical structure of the products [I], solvent for hydrogenation and solvent for recrystallization are summarised in Table 1, and the yields of the products [I] are also shown in Table 1 together with their melting points, elemental analysis data, Inhibition (%) of tyrosine hydroxylase (TH) and Inhibition (%) to dopamine β-hydroxylase (DH) at different concentrations of the products [I] of 100 mcg/cc and 200 mcg/cc.

[3] = molecular target: T2, Dopamine β-Hydroxylase (Bos taurus, UniProt P15101); assay: Inhibition of dopamine β-hydroxylase (DH); format: biochemical
T2 sequence (P15101 1-610): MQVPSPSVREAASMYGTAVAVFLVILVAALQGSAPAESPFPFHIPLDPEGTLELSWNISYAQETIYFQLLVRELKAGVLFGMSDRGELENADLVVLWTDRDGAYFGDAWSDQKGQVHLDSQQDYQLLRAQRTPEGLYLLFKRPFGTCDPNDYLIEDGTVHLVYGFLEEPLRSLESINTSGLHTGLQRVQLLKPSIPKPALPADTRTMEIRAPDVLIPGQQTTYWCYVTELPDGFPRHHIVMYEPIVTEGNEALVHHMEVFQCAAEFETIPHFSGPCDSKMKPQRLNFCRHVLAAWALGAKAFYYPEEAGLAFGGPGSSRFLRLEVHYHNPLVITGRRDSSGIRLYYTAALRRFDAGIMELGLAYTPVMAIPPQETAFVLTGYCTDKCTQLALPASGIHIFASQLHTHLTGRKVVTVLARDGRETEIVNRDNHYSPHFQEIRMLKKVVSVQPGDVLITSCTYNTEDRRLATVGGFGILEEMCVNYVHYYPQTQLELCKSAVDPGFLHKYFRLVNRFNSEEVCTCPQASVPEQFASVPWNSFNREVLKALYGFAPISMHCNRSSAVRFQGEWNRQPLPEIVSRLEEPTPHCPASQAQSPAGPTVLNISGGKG
Text: as §1, §2

[4] = Lowering of blood pressure (general statements); parameters: species or system mammals; conditions: in vivo
[5] = Toxicity in mice (LD50; 30-day daily dosing); format: in vivo; conditions: mouse, in vivo, ip; mice, intraperitoneal injection
[6] = test system: mice and rats; assay: Sleeping / sedative effect in mice and rats; format: in vivo; conditions: injection of 200 mg/kg to mice and rats
Text: (§3) Hydroxylation of tyrosine is the rate-limiting step of norepinephrine biosynthesis. Therefore, inhibition of tyrosine hydroxylase results in inhibition of norepinephrine synthesis in vivo which results in lowering the blood pressure. […] Okamoto, of the Medical School, University of Kyoto, Japan, and described in "Journal of Antibiotics" 23: 514 (1970).

[7] = test system: mice; assay: Toxicity in mice (LD50; 30-day daily dosing); format: in vivo; conditions: 160, 40 and 10 mg/kg orally or intraperitoneally daily to mice for 30 days
[8] = test system: genetically hypertensive rats; assay: Blood pressure in genetically hypertensive rats; format: in vivo; conditions: genetically hypertensive rats (Okamoto)
Text: as §3

[9] = test system: rat; assay: Blood pressure in rats; format: in vivo; conditions: for systolic blood pressure lowered to: 6.25 mg/kg i.p.
Method: as §3
When 6.25 mg/kg was intraperitoneally injected to a rat of 185 mm. systolic blood pressure and another rat of 188 mm., the blood pressure was then lowered to 115-145 mm. and 138-166 mm. respectively during 1-22 hours after the injection. When […]. was intraperitoneally injected to a rat of 190 mm. systolic blood pressure, the pressure was reduced to 146-162 mm. during 1-22 hours after the injection. […] It caused 20-30% reduction of blood pressure which continued for about 5 days after the last oral administration.

[10] = oral daily for three days, 3.1, 6.25, 12.5, 25 mg/kg

SMILES: CC1=CC(=O)C(C(=O)CCc2ccccc2)C(=O)O1 (stereo not drawn) [3-hydrocinnamoyl-6-methyl-2H-pyran-2,4(3H)-dione, reference compound]
- antibacterial and antifungal activity [1]: weak antibacterial and antifungal activity
- inhibition at 100 µg/mL ([2]; 100 mcg/cc): 49.7%
- inhibition at 200 µg/mL ([2]; 200 mcg/cc): 52.8%
- inhibition to DH ([3]; 100 mcg/cc): 100%
- blood pressure reducing (hypotensive) activity, in words [4]: active in reducing blood pressure

SMILES: COc1ccccc1CCC(=O)C1C(=O)C=C(C)OC1=O (stereo not drawn) [3-(2-methoxyhydrocinnamoyl)-6-methyl-2H-pyran-2,4(3H)-dione] [listing 1 of 2 here]
- LD50 [5]: 1200 mg/kg
- IC50 [3]: 1910 nM

SMILES: COc1ccccc1CCC(=O)C1C(=O)C=C(C)OC1=O (stereo not drawn) [3-(2-methoxyhydrocinnamoyl)-6-methyl-2H-pyran-2,4(3H)-dione] [listing 2 of 2 here]
- sleeping and sedative effect [6]: did not cause sleeping and a sedative effect was not recognized
- usual toxic signs [7]: none of the usual toxic signs appeared except a decrease in the blood pressure
- inhibition % to tyrosine hydroxylase ([2]; 12.5 mcg/cc): 10%
- inhibition % to tyrosine hydroxylase ([2]; 25 mcg/cc): 18%
- inhibition % to tyrosine hydroxylase ([2]; 50 mcg/cc): 22%
- inhibition % to tyrosine hydroxylase ([2]; 100 mcg/cc): 32%
- hypotensive effect [8]: even more markedly
- duration of blood pressure reduction after the last oral administration [9, 10]: about 5 days
- reduction of blood pressure [9, 10]: 20-30%
- reduction of blood pressure (in words) [9, 10]: marked reduction of blood pressure
- systolic blood pressure lowered to ([9]; rat of 185 mm systolic, during 1-22 hours after injection): 115-145 mm
- systolic blood pressure lowered to ([9]; rat of 188 mm systolic, during 1-22 hours after injection): 138-166 mm
- systolic blood pressure reduced to ([9]; rat of 190 mm systolic, 12.5 mm/kg (so in the source) i.p., during 1-22 hours after injection): 146-162 mm
- systolic and diastolic blood pressure ([9]; rats, daily injection or daily oral administration, 3.5 mg/kg): lowered both the systolic and the diastolic blood pressure
